In US20200108043A1, “COMPOUNDS AND COMPOSITIONS FOR EXTENDING LIFESPAN OF A SUBJECT” (YALE UNIVERSITY, priority 2017, published 2020):
Entries after “also recorded” stand apart in the source; their conditions may differ. Residues, ends and D or L forms follow the SMILES beside them. *: point of attachment. Cbz = O=C(OCc1ccccc1)*

Legend:
[1] = molecular target: T1, proteasome (Saccharomyces cerevisiae, UniProt P30656); test: Proteasome assay with fluorogenic substrate Suc-LLVY-AMC on yeast protein extracts; format: biochemical
T1 construct: with 50 μg of total protein in 200 μL of lysis buffer; endogenous in cells; host or cells: S. cerevisiae BY4741 wild-type or ΔUBR2 cells, glass-bead lysate (total protein extract)
Description: For protein extraction, 50 mL of cells were grown for 18 hours to an OD600 of approximately 0.8, then transferred to a 50 mL conical tube and centrifuged at 4255×g for 5 minutes at room temperature. The supernatant was discarded, and the cells were re-suspended in 150 μL of cold lysis buffer (50 mM Tris-HCl, pH 7.5, 0.5 mM EDTA, 5 mM MgCl2, with complete ULTRA mini protease inhibitor tablets, EDTA free) and transferred to a 1.5 mL tube. A ¼ volume of 500-750 μm glass beads (Acros Organics 397641000) was added to each tube. For 10 rounds, the tubes were chilled in ice water for 1 minute, then vortexed at maximum speed for 30 seconds to physically rupture the cells, and returned to the ice water. Samples were then spun for 3 minutes at 2500×g and 4° C., and the supernatant was transferred to a fresh tube. The solution was further clarified by centrifugation at 8000×g for 10 minutes at 4° C., and the supernatant was transferred to a fresh tube. Protein concentration was measured using a Nanodrop measuring the absorbance of the sample at 280 nm.
The proteasome assay used was described in Kruegel, et al. PLoS Genet. 7, (2011). The assay was performed in a 96-well clear-bottom plate (Costar 3603) with 50 μg of total protein in 200 μL of lysis buffer. The fluorogenic proteasome substrate Suc-LLVY-AMC (Bachem 1-1395) was added to a final concentration of 100 μM. Fluorescence intensity with an excitation wavelength of 380 nm and an emission wavelength of 460 nm was recorded at 5-minute intervals using a Neo2 plate reader (BioTek) set to mix constantly and maintain 30° C. Negative control reactions were performed in the presence of 50 μM MG132 (Sigma 474787), a proteasome inhibitor.

[2] = test system: S. cerevisiae; format: cell-based
Description: To obtain the single-cell level data for the age and generation-durations of replicatively aging mother cells, data reported in Liu, P., et al., Cell Rep. 634-644 (2015) was re-analyzed. The data was collected in the same media condition (CSM 2% glucose) as reported elsewhere herein. Cells were grown for ˜24 hours in CSM 2% glucose prior to loading to the microfluidic device. Once cells were loaded, media was swapped to provide CSM 2% glucose control media (untreated), media containing DMSO as a vehicle control (American Bio AB00435), media containing 10 μM terreic acid (Sigma SML0480), media containing 10 μM mycophenolic acid (Sigma M5255), or media containing another compound at the indicated concentration. An automated microscope was used to track […], and replicative lifespan was later determined by counting the number of daughters produced before death. In the case of compound validation, only newborn cells were included in the lifespan experiment. To compare the replicative lifespan of labeled and unlabeled cells, only cells that were present within the traps at the start of the experiment were included. For these experiments, cells were loaded to the microfluidic device at an increased rate of 100 μL/min to increase the number of trapped mother cells. Green fluorescent images were also taken at the start of the experiment to confirm that the cells were visibly labeled.
Differences in lifespan characteristics were assessed through Log-Rank test using MATLAB with a cut-off value of P=0.05. The script for Log-Rank test was downloaded from MATLAB. Differences in proteasome activity were assessed using the unpaired, two-tailed, parametric t-test function of the GraphPad Prism software.
The Longevity Placement Test (LPT) was designed as a mutually exclusive, collectively exhaustive test to determine the relationship of a longevity intervention to a known genetic regulator of lifespan. For a given intervention that extends lifespan, any of three possible relationships may exist relative to a known genetic regulator of lifespan. (1) The intervention may act to extend lifespan independently from the known regulator. (2) The […] may act downstream from the known regulator, converging on a single component of the known regulator's lifespan pathway. (3) The intervention may act upstream from or upon the known regulator, ultimately modulating lifespan through the genetic regulator.
In Step 1 of the LPT, the longevity intervention is applied to a strain in which a genetic regulator of lifespan is deleted. In the event that lifespan extension from the longevity intervention is observed in this background, only possibilities (1) and (2) above remain valid (FIG. 7B). If no lifespan extension is observed, then possibilities (2) and (3) remain valid. Possibility (2) cannot be ruled out in this step, since non-saturating action by the genetic regulator could leave room for lifespan extension by the longevity intervention, while saturating action would preclude it.
In Step 2 of the LPT, an epistatic agent, which prevents lifespan extension from the longevity agent, is applied to a strain in which some upstream member of the genetic regulator's lifespan pathway has been modified to extend lifespan. This step differentiates possibility (2) from the remaining possibility after Step 1. In the event that lifespan extension from the genetic regulator's pathway is suppressed by the epistatic agent, this determines that possibility (2) is correct. In the event that no epistasis is observed, the remaining possibility, (1) or (3), is correct (FIG. 7C).

[3] = test system: C. elegans; test: Roundworm (C. elegans) lifespan extension; format: in vivo, Caenorhabditis elegans; conditions: 10 μM in NGM plates, treated for duration of lifespan, vs control
Description: Synchronized animals were obtained using the egg-laying method, allowing young […] eggs for 4 hours on bacteria-seeded plates. For each treatment group, 120 synchronized day-1 adults were used. All experiments were carried out at 20° C. Treatment groups were blinded. Nematode growth media (NGM) plates were made for each treatment group: Negative control (DMSO), Mycophenolic Acid (10 μM in DMSO), and Terreic Acid (10 μM in DMSO). The compounds were added to NGM media before pouring the plates. The plates were then dried overnight before moving them to 4° C. to prevent degradation of the compounds. Plates were seeded with 100 μL of 10× concentrated OP50 E. coli, and dried overnight at room temperature. Plates were UV treated with a UVP CL-1000 Ultraviolet Crosslinker, run twice on the energy setting ‘9999’ for about 5 minutes each run. Worms were transferred to new plates every 2-4 days. Viability was scored every day, with death determined by lack of response to a platinum wire. Missing worms, or those that died due to internal hatching were censored.

[4] = test system: Saccharomyces cerevisiae; test: High-Life (High throughput replicative Lifespan measurement) flow cytometry assay in MEP yeast; format: cell-based; conditions: 10 μM, 24 hours in culture, 3-4 replicate wells, repeat of screen hits
Description: Cells were labeled with NHS-fluorescein as described above, then diluted to 20 cells/μL in media. 80 μL/well was aliquoted to 384-well plates, which were covered with a breathable membrane and placed on a shaker platform in a humidified incubator. After 3 hours, the plates were removed from the incubator and each well was treated with 20 μL pre-warmed, 30° C. 5 μM β-estradiol in media. In the case of ibuprofen or compound-treated wells, the compound was diluted in this volume at a 5× concentration to achieve a final concentration of 10 μM, or 100 μM for ibuprofen. The plates were then returned to the incubator. At indicated times, one plate was removed from the incubator and placed on an autosampler cooled to 8° C. attached to a Stratedigm flow cytometer. The cytometer was set to automatically add and mix 20 μL of aqueous solution containing 60 μg/mL CF405M-WGA (Biotium 29028) and propidium iodide (Sigma P4864) prior to acquiring 80 μL of sample for each well.
In order to test the lifespan of model organisms on both a large-scale and with quick turn-around, a massively multiplexed method was developed to measure replicative lifespan in the short-lived model organisms Saccharomyces cerevisiae. The protocol uses green-fluorescent labeling to identify progenitor cells, red-fluorescent labeling to differentiate non-viable cells, and blue-fluorescent labeling of bud scars to determine replicative age (FIG. 1). Each parameter is measured using a flow cytometer.
To achieve high throughput, the measurement system was automated, and the assay was performed in 384-well plates. The assay was performed using an autosampler-equipped flow cytometer, in a volume of 100 μL. Growth of even a single cell and its progeny in such a small volume will result in nutrient starvation before the natural replicative lifespan is exhausted; therefore to circumvent this issue, High-Life experiments were performed in the background of the Mother Enrichment Program (MEP) (Lindstrom and Gottschling, Genetics. 2009 October; 183(2):413-22). MEP strains express a CRE recombinase fused to an estrogen-binding domain for only a short time after birth. In the presence of β-estradiol, the recombinase translocates to the nucleus where it can excise two essential genes that have been modified to contain the exogenous LoxP sequence. Addition of β-estradiol to the media thus renders newborn daughters inviable without affecting existing mother cells, preventing exponential growth of the cell population and nutrient depletion (FIG. 2A).
The High-Life method was then tested to determine if it was suitable to screening for compounds that extend replicative lifespan. […] The effect of these compounds on High-Life readings was assayed after 24 hours in culture at 10 μM concentration. As a positive control, ibuprofen was used.

## CC(C)C[C@@H](C=O)NC(=O)[C@H](CC(C)C)NC(=O)[C@H](CC(C)C)NC(=O)OCc1ccccc1 [MG-132] (Cbz-Leu-Leu-Leu-aldehyde)
[1]; 50 μM MG132
  rate of fluorescence increase in proteasome assay (negative control): low rate of fluorescence increase

## Nc1nc2nc[nH]c2c(=O)[nH]1 [guanine]
[2]; SIR2 overexpression, guanine as epistatic agent
  reversal of lifespan extension conferred by SIR2 overexpression (LPT step 2): did not reverse the lifespan extension
[2]; ΔHXK2 strain, guanine as epistatic agent
  suppression of lifespan extension in ΔHXK2 strain (LPT step 2): did not suppress lifespan extension
[2]; ΔTOR1 strain, guanine as epistatic agent
  suppression of lifespan extension in ΔTOR1 strain (LPT step 2): did not suppress lifespan extension
[2]; ΔUBR2 strain, guanine supplementation
  suppression of lifespan extension from UBR2 deletion (LPT step 2): partially suppressed lifespan extension
[1]; ΔUBR2 cells, presence vs absence of guanine
  proteasome activity in ΔUBR2 cells: did not alter proteasome activity

## CC1=C(O)C(=O)[C@@H]2O[C@@H]2C1=O [terreic acid]
[3]
  lifespan of C. elegans: measurable extension of lifespan; also recorded: statistically significant lifespan extension
[2]; 10 μM compound, wild-type haploid cells, Replicator device
  extension of mean RLS: 15%
[4]
  average High-Life readings (progenitor fraction viable vs CF405M intensity) relative to controls: at least slightly above controls
